# Results: patent publication US11491245B2, “Gadolinium chelate compounds for use in magnetic resonance imaging” (BAYER PHARMA AKTIENGESELLSCHAFT, priority 2015, dated 2022)
# “Also recorded” adds a separate entry of the source.
# Tests used:
# Water solubility = format: physicochemical; details: 10 mM Tris-HCl buffer, 20° C.
# Protocol: The water solubility of the compounds was determined at room temperature (20° C.) in 0.5 mL buffer solution (10 mM Tris-HCl) in the microcentrifuge tubes (Eppendorf, 2.0 mL safe-lock caps). The solid compound was added stepwise to the buffer solution. The suspension was mixed using a shaker (Heidolph Reax 2000) and treated 5 min in an ultrasound bath (Bandelin, Sonorex Super RK255H) The suspension was stored at room temperature (20° C.) over night and final Gadolinium concentration was determined by inductively coupled plasma mass spectrometry (ICP-MS).
# [1] = Whole body imaging (dynamic MRI and tissue Gd concentration); format: in vivo, male New Zealand white rabbits; details: rabbits
# Protocol: The study was performed with a clinical whole body MRI equipped with body spine coil, abdomen flex coil, neck coil (1.5 T Magnetom Avanto, Siemens Healthcare, Erlangen, Germany). The study was done using male New Zealand white rabbits (weight 2.3-3.0 kg, n=8, Charles River Kisslegg). All animals were initially anesthetized using a body weight-adjusted intramuscular injection of a mixture (1+2) of xylazine hydrochloride (20 mg/mL, Rompun 2%, Bayer Vital GmbH, Leverkusen, Germany) and ketamine hydrochloride (100 mg/mL, Ketavet, Pfizer, Pharmacia GmbH, Berlin, Germany) using 1 mL/kg body weight. The continuous anesthesia of the intubated animals (endotracheal tube, Rueschelit Super Safe Clear, cuff 3.0 mm, Willy Ruesch AG, Kernen, Germany) was achieved by the intravenous injection of 0.9 mg propofol per kilogram per hour (10 mg/mL, Propofol-Lipuro 1%, B. Braun Melsungen AG, Melsungen, Germany). The continuous intravenous injection was performed using a MR infusion system (Continuum MR Infusion System, Medrad Europe B. V., A E Beek, Germany). The tracheal respiration (SV 900C, Maquet, Rastatt, Germany) was performed with 55% oxygen, forty breaths per minute and a breathing volume of 7 mL per kilogram body weight per minute.
# Dynamic MRI measurements up to 22 min post injection with subsequent quantitative signal analysis (Siemens Mean Curve software (SYNGO Task Card, Siemens Healthcare, Erlangen, Germany), were performed for three different regions head and neck (brain, tongue, chops muscle, neck muscle), abdomen (spleen, liver, blood) and pelvis (extremity muscle). For the three different slice groups a 3D T1-weighted Vibe sequence was used (TR=4.74 ms, TE=2.38, flip=10°, 1:29 min). The dynamic measurements of the three slice groups (Head/Neck: 1:29 min, Abdomen: 0:49 min, Pelvis: 1:16 min) were done up to 22 min post injection: 1. Head/Neck: baseline, 1.4, 5.2, 8.9, 12.8, 16.5, 20.4 min, 2. Abdomen: baseline, 0.5, 4.3, 8.1, 11.9, 15.7, 19.5 min and 3. Pelvis: baseline, 2.9, 6.7, 10.5, 14.4, 18.1, 22.0 min. At 30 min post injection the animals were sacrificed and the Gd concentrations were measured using Inductively Coupled Plasma Mass Spectroscopy (ICP-MS Agilent 7500a, Waldbronn, Germany) in the following tissue samples: blood, brain, tongue, liver and extremity muscle. A quantitative image evaluation was performed for the 30 min time point p.i. due to the combination of the quantitative ICP-MS Gadolinium concentrations and the MRI region-of-interest analysis.
# [2] = Off target activity screen (LeadProfilingScreen®, radioligand binding and enzyme assays); details: commercial radioligand binding and enzyme assays
# [3] = Contrast-enhanced magnetic resonance angiography (CE-MRA); format: in vivo, male New Zealand white rabbits; details: rabbits
# Protocol: Reference compound 1 (Gadovist®), as an approved representative of the Gadolinium-based MRI contrast agents, was used in both dose protocols (100 μmol Gd/kg bw and 30 μmol Gd/kg bw) and compared to Example 3 (30 μmol Gd/kg bw).
# The contrast-enhanced magnetic resonance angiography study was performed at a clinical 1.5 T Scanner (Magnetom Avanto, Siemens Healthcare, Erlangen, Germany). For optimal signal exploitation, a standard spine coil was used for the data acquisition. The study was done using male New Zealand white rabbits (weight 2.5-2.9 kg, n=6, Charles River Kisslegg). All animals were initially anesthetized using a body weight-adjusted intramuscular injection of a mixture (1+2) of xylazine hydrochloride (20 mg/mL, Rompun 2%, Bayer Vital GmbH, Leverkusen, Germany) and ketamine hydrochloride (100 mg/mL, Ketavet, Pfizer, Pharmacia GmbH, Berlin, Germany) using 1 mL/kg body weight. […]
# Based on a localizer sequence oriented in coronal, axial, and sagittal directions, the anatomic course of the aorta was acquired. The time to peak was determined using a small intravenous test bolus (0.25 mL/2.5-2.7 kg or 0.3 mL/2.8-2.9 kg bw, Reference compound 1) and a 3D FLASH sequence (test bolus sequence: repetition time: 36.4 millisecond, echo time 1.45 millisecond, flip angle: 30 degree, spatial resolution: 1.0×0.8×17 mm). […]
smiles,measurement,setting,value
"CC(C(=O)NCC(=O)NCC(CNC(=O)CNC(=O)C(C)N1CCN(CC(=O)[O-])CCN(CC(=O)[O-])CCN(CC(=O)[O-])CC1)(CNC(=O)CNC(=O)C(C)N1CCN(CC(=O)[O-])CCN(CC(=O)[O-])CCN(CC(=O)[O-])CC1)CNC(=O)CNC(=O)C(C)N1CCN(CC(=O)[O-])CCN(CC(=O)[O-])CCN(CC(=O)[O-])CC1)N1CCN(CC(=O)[O-])CCN(CC(=O)[O-])CCN(CC(=O)[O-])CC1.[Gd+3].[Gd+3].[Gd+3].[Gd+3] (stereo not shown) [Example 3, Tetragadolinium [4,10-bis(carboxylatomethyl)-7-{3,6,12,15-tetraoxo-16-[4,7,10-tris-(carboxylatomethyl)-1,4,7,10-tetraazacyclododecan-1-yl]-9,9-bis({[({2-[4,7,10-tris-(carboxylatomethyl)-1,4,7,10-tetraazacyclododecan-1-yl]propanoyl}amino)acetyl]-amino}methyl)-4,7,11,14-tetraazaheptadecan-2-yl}-1,4,7,10-tetraazacyclododecan-1-yl]acetate]",Solubility,Water solubility,>1400 mmol Gd/L
same,slope of the linear regression between tissue gadolinium concentration and MRI signal change,"[1]; tissues 30 min p.i., FIGS. 8A and 8B",1.9
same,time course of contrast enhancements / signal changes,"[1]; various tissues, up to 22 min post injection, vs Reference compound 1, FIG. 7",No differences in the time course of signal changes were observed; also recorded: no differences in the time course of contrast enhancements were observed
same,contrast enhancement (amplitude),"[1]; various tissues, vs Reference compound 1, FIG. 7",higher compared to that of Reference compound 1
same,off target activity,[2],no critical finding
same,image quality of the low dose protocol,"[3]; 30 μmol Gd/kg bw vs 30 μmol Gd/kg bw Reference compound 1, 1.5 T",significantly better than the low dose protocol of Reference compound 1
same,contrast enhancement of the low dose protocol,"[3]; 30 μmol Gd/kg bw vs 100 μmol Gd/kg bw Reference compound 1, 1.5 T",comparable to that of the standard dose of Reference compound 1
